Assay results from patent US11260050B2, “Combination of cotinine plus antioxidant for treatment-resistant depression and correction of astrocytes functional deficit induced by depression and other neuropathological” (UNIVERSIDAD SAN SEBASTIAN, priority 2017, dated 2022).

Key:
[1] = system: mice subjected to fear conditioning; assay: Contextual fear retention and extinction (Example 1, Experiment 3); format: in vivo, C57BL/6 mice
Text: Between trials, the chamber was sanitized with 70% ethanol and dried.

[2] = system: mice subjected to restraint stress; assay: Novel object recognition after restraint stress (Example 1, Experiment 1); format: in vivo, C57BL/6 mice; conditions: RS mice, 14 days of IN cotinine; p<0.05
Procedure: (§1) Mice were treated immediately after the 21 days of immobilization stress (6 h/day) until euthanasia. Mice (n=5-8/condition) received daily treatments with 1. PBS (phosphate buffer saline, pH 7.4) via intranasal (2×12 μl/nostril), 2. PBS via gavage (50 μl); 3. Cotinine dissolved in PBS via oral (gavage, (0.5 mg/kg; Cot 0.5); 4. Cotinine dissolved in PBS via intranasal (Cot IN, 10 mg/ml, 2×12 μl/nostril).
(§2) To induce chronic stress, the restraint stress paradigm was used as previously described. Mice are immobilized in 50 ml falcon plastic tubes that were attached to mouse cages. The immobilization proceeded during 6 h from 9:00 AM to 3:00 PM in absence of treatments. Tubes have holes in the opposite side of the tube to allow the animal breathing and urination. Mice were almost completely immobilized for 6 h/day for 21 days after which they were permitted freely to move, eat and drink.
After a habituation step in the OF arena, each mouse was individually placed in the apparatus containing two identical objects located equidistant to each other (familiarization phase) and left to explore the objects for 5 min. Then, mice were returned to their cages and permitted to rest for 30 min. […] The time exploring the two objects was recorded during 5 min. […]

[3] = system: mice subjected to restraint stress; assay: Light-dark box after restraint stress (Example 1, Experiment 1); format: in vivo, C57BL/6 mice; conditions: RS mice treated with cotinine; p=0.035
Procedure: as §1, §2
Behavioral analysis was performed using the Any-maze® software (Stoelting CO, USA) to track the activity of animals. Mice were tested for depressive behavior, anxiety, locomotor activity and working memory using the Porsolt's test; Light-dark box (LDB) and the elevated plus Maze (EPM), open field (OF), and Novel object recognition (NOR), respectively.

restrained mice = assay: Open field test after chronic restraint stress (Example 2); format: in vivo, C57BL/6 male mice; conditions: IN cotinine 24 μl of 10 mg/ml daily, RS+PBS 61±19 m
Procedure: Mice between 2-3 months of age after one week of acclimatization were randomly divided into two groups. Stressed mice were subjected to restraint stress. Control (non-restrained) mice were allowed to move freely during this period. After the stress exposure period, mice were divided into three experimental groups: 1) Non-restrained mice treated with vehicle (PBS, pH 7.4) serving as unstressed controls (n=8); 2) Restrained mice (RS) treated with vehicle (n=8); 3), RS mice treated with 24 μl of a cotinine solution (10 mg/ml in PBS, pH 7.4) via intranasal route of administration (n=6). Treatments were administered daily until euthanasia. After two weeks of treatments mice were behaviorally tested and euthanized (FIG. 10) Intranasal delivery was performed as previously described (Hanson and Frey, 2007). Mice at 2-3 months of age were hand-restrained, positioned in a supine position, and administered two 12 μl drops of cotinine solution (10 mg/ml in PBS), or PBS alone, into both nares. […] Mice were individually placed in an uncovered square arena (40 cm×40 cm×35 cm), allowed to freely explore for 30 minutes (min) while monitored with a video tracking software (ANY-Maze®, Stoelting Co., Illinois, USA) under moderate lighting. Several parameters including total distance traveled, speed, and time spent in the center and peripheral zones (20 cm×20 cm) were measured to assess locomotor activity.

conditioned mice = assay: Fear retention and extinction tests after fear conditioning (Example 4); format: in vivo, Mice C57BL/6
Procedure: Three-month-old mice (n=5-6/condition) were weighed and assigned to treatment groups. Mice were treated with vehicle or drugs, starting two h after fear conditioning and daily after behavioral testing until euthanasia. Mice received daily treatments with 1. PBS (phosphate buffer saline, pH 7.4) via intranasal; 2. Cotinine (10 mg/ml) dissolved in PBS via intranasal (IN Cot, 24 μl); 3. Krill oil dissolved in PBS, via intranasal (48 mg/ml, 24 μl); 4. Cotinine (10 mg/ml) plus krill oil dissolved in PBS, via intranasal (48 mg/ml, 24 μl); 5.
For intranasal delivery, mice were hand-restrained, placed in a supine position, and given two 12 μl drops of cotinine solutions, or PBS, into both nares consecutively. Mice were given an extra 12 μl treatment drop if the subject forcibly ejected or sneezed out the solution. Mice were held supine for 5-10 seconds after delivery to ensure that all fluid was inhaled.
Contextual fear conditioning was performed as described. The conditioning chamber used (33 cm×20 cm×22 cm) is surrounded by a sound-attenuating box with a camera connected to freeze frame software (MED Associates Inc.) and equipped to provide a background white noise (72 dB). The conditioning chamber contains in one side a speaker and in the opposite side has a 24V light, and a 36-bar insulated shock grid floor. To perform this test, each mouse was placed in the conditioning chamber for 2 min before the onset of a discrete tone (a sound that will last 30 seconds (sec) at 2,800 Hz and 85 dB). In the last two seconds of this tone, mice received a foot shock of 1 mA, kept in the conditioning chamber for 2 min and returned to their home cages. Between trials, the chamber was sanitized with 70% ethanol and dried. Freezing behavior was defined as the absence of all movement except the one needed for breathing was assessed using the FreezeView Software (MED Associates Inc.).
Fear retention and extinction experiments were performed as described, using the same cohorts of mice and reproduced in two separate experiments. To assess fear retention and mice underwent re-exposure to the conditioning chamber in the absence of an unconditioned stimulus (shock or auditory cues) for 3 minutes (min) in daily extinction trials. Freezing behavior was measured using the ANY-Maze® software (Stoelting CO, USA). The extinction trials were continued until the decrease in freezing behavior reached a stable level.

CN1C(=O)CC[C@H]1c1cccnc1 [Cotinine, (5S)-1-methyl-5-(3-pyridyl) pyrrolidin-2-one]
freezing in the contextual retention test (consolidation of fear memory) ([1]; IN treatment started 2 h after FC, test 24 h after FC): levels of freezing similar to control mice
freezing behavior during contextual fear extinction trials ([1]; daily IN treatment, daily 3 min re-exposure): significant enhancement of memory extinction on day 2 and 3
day of maximal decrease in freezing during extinction ([1]; daily IN treatment, control mice day 5): 3 days
number of entries into the new object area (NOR) [2]: increased the number of entries into the new object area to control values
number of entries to the light zone (light-dark box) [3]: almost completely restored the number of entries to the light zone
distance traveled in the OF test (restrained mice): 49±13 m
freezing behavior during daily extinction trials (speed of fear extinction) (conditioned mice; 5 days of extinction, daily treatment): faster extinction of fear
day on which maximal decrease in freezing was reached (conditioned mice; same time as mice treated with PBS): 4 days
fear reaction (freezing) in the retention test (conditioned mice; treatment started 2 h after FC, IN cotinine 10 mg/ml, IN KO 48 mg/ml, oral sertraline 3 mg/kg): significant decrease in the fear reaction in the retention test
